The source of these data is patent EP2140864A2 (H. Lundbeck A/S, priority 2001, dated 2002).

pKi: −log10 of the molar value.

As usually defined, the pKi is the Ki on a negative log10 scale, so that one unit is a factor of ten.

The target in the first assay is T1, human GAL1 receptor (Homo sapiens, UniProt P47211).
T1 construct: expressed in transfected cells
T1 sequence (P47211 1-349): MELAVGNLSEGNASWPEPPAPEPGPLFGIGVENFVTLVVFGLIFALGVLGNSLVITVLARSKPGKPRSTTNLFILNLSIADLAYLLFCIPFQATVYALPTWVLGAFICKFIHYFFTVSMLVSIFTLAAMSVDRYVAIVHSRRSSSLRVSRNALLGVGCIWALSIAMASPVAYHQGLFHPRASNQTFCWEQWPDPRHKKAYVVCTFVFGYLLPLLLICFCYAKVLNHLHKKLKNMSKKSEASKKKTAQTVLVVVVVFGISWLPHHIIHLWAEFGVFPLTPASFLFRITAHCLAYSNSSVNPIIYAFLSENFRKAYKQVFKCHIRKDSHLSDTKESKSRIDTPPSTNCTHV
Briefly: Radioligand binding at cloned human GAL1 receptor. The following applies: pyrimidines, read-out: Ki GalR1. The protocol: The binding properties of the pyrimidines of the present invention were evaluated at the cloned human galanin receptors, GAL1, GAL2, and GAL3, using protocols described herein. […]
(§1) LM(tk-) cells were stably transfected with the human GAL1 or GAL3 receptor. CHO cells were stably transfected with the human GAL2 receptor.
(§2) cDNAs for the human and rat GAL1, and human and rat GAL3 receptors were transfected with a G-418 resistant gene into the mouse fibroblast LM(tk-) cell line by a calcium phosphate transfection method (Cullen, 1987). Stably transfected cells were selected with G-418. Human and rat GAL2 receptors were similarly transfected into CHO cells.
(§3) Membranes were harvested from stably transfected LM(tk-) cells. Adherent cells were washed twice in ice-cold phosphate buffered saline (138 mM NaCl, 8.1 mM Na2HPO4, 2.5 mM KCl, 1.2 mM KH2PO4, 0.9 mM CaCl2, 0.5 mM MgCl2, pH 7.4) and lysed by sonication in ice-cold sonication buffer (20 mM Tris-HCl, 5 mM EDTA, pH 7.7). Large particles and debris were cleared by low speed centrifugation (200 x g, 5 min, 4°C). Membranes were collected from the supernatant fraction by centrifugation (32,000 x g, 18 min, 4°C), washed with ice-cold hypotonic buffer, and collected again by centrifugation (32,000 x g, 18 min, 4°C). The final membrane pellet was resuspended by sonication into a small volume of ice-cold binding buffer (-1 ml for every 5 plates: 10 mM NaCl, 20 mM HEPES, 0.22 mM KH2PO4, 1.26 mM CaCl2, 0.81 mM MgSO4, pH 7.4). Protein concentration was measured by the Bradford method (Bradford, 1976) using Bio-Rad Reagent, with bovine serum albumin as a standard. Membranes were held on ice for up to one hour and used fresh, or flash frozen and stored in liquid nitrogen. Membranes were prepared similarly from CHO cells.
(§4) Galanin Recentors: Binding assays were performed according to the following published methods: human GAL3 (PCT International Publication No. WO 98/15570), human GAL1 (PCT International Publication No. WO 95/2260), human GAL2 (PCT International Publication No. WO 97/26853).
(§5) Binding data were analyzed using nonlinear regression and statistical techniques available in the GraphPAD Prism package (San Diego, CA). Enzymatic assay data were derived from a standard curve of reference compound data.
Turning to `Cc1ccc(Nc2cc(N(C)C)nc(N3CCOC(c4ccccc4)C3)n2)cc1` (stereo not drawn) [Example 83], the pKi is less than 5.30.

For `Cc1ccc(Nc2cc(N3CCCCC3)nc(N3CCN(c4ccccc4)CC3)n2)cc1` [Example 25], the pKi is less than 5.30.

As to `Cc1ccc(Nc2cc(N3CCCCC3)nc(N3CCO[C@@H](c4ccccc4)[C@H]3C)n2)cc1` [Example 48], the pKi is less than 5.30.

For the molecule `Cc1ccc(Nc2cc(N(C)C)nc(N3CCN(c4ncccc4C(F)(F)F)CC3)n2)cc1` [Example 88], the pKi was 5.66.

As for `CN(CCc1c[nH]c2ccccc12)c1nc(Nc2ccc3ccccc3c2)cc(N2CCCCC2)n1` [Example 13], the pKi is 5.69.

For `COCC1CCCCN1c1cc(Nc2ccc(C)cc2)nc(N2CCN(c3ncccc3C(F)(F)F)CC2)n1` (stereo not drawn) [Example 90], the pKi is less than 5.30.

As for `Cc1ccc(Nc2cc(N(C)C)nc(NCCc3c[nH]c4ccccc34)n2)cc1` [Example 76], the pKi is 5.42.

With `Cc1cc(Nc2cc(N(C)C)nc(Nc3ccccc3)n2)ccc1Cl` [Example 61], the pKi is less than 5.30.

With `COCCN(c1nc(Nc2ccc(C)cc2)cc(N2CCCCC2)n1)C1CCCCC1` [Example 2], the pKi is 5.55.

On to `CC1CCC(Nc2cc(N(C)C)nc(Nc3ccccc3)n2)CC1` (stereo not drawn) [Example 67], for which the pKi is less than 5.30.

As for `Cc1ccc(Nc2cc(N3CCCCC3)nc(Nc3ccc(Cl)cc3)n2)cc1` [Example 5], the pKi was less than 5.30.

`Cc1ccc(Nc2cc(N3CCCCC3)nc(N3CCN(c4cccc(C(F)(F)F)c4)CC3)n2)cc1` [Example 29]: the pKi was 6.15.

In the case of `Cc1ccc(Nc2cc(N(C)C)nc(Nc3ccccc3)n2)cc1Cl` [Example 62], the pKi was less than 5.30.

Turning to `Cc1ccc(Nc2cc(N3CCCCC3)nc(N3CCc4ccccc4C3)n2)cc1` [Example 41], the pKi was 5.67.

For the molecule `Cc1ccc(Nc2cc(N3CCCCC3)nc(NC(C)Cc3c[nH]c4ccccc34)n2)cc1` (stereo not drawn) [Example 20], the pKi is less than 5.30.

Another assay has as its target T2, human GAL3 receptor (Homo sapiens, UniProt O60755).
T2 construct: expressed in transfected cells
T2 sequence (O60755 1-368): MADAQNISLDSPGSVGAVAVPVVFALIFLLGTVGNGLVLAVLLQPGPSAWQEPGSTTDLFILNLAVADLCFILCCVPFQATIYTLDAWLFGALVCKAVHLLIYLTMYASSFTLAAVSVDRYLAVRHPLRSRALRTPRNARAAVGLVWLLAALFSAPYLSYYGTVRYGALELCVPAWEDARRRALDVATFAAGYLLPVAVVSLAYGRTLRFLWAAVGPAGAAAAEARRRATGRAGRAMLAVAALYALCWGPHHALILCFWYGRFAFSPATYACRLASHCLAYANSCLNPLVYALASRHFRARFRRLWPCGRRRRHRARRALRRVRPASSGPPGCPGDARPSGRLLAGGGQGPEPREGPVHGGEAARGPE
The assay is described as follows: Radioligand binding at cloned human GAL3 receptor. Particulars: pyrimidines, cloned human receptor; read-out: Ki GalR3. The gist of the method: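 Compound vehicle, as final assay concentration, was 3% DMSO (indolones) or 1% ethanol/0.09% polypuronic acid F-127 (pyrimidines). Binding measured on fresh or frozen membranes of stably transfected LM(tk-) mouse fibroblasts carrying cloned human GAL3, in pH 7.4 HEPES buffer; values derived by nonlinear regression.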
In the case of `Cc1ccc(Nc2cc(N(C)C)nc(N3CCOC(c4ccccc4)C3)n2)cc1` (stereo not drawn) [Example 83], the pKi was 6.80.

Take `Cc1ccc(Nc2cc(N3CCCCC3)nc(N3CCN(c4ccccc4)CC3)n2)cc1` [Example 25]: the pKi is 6.26.

As for `Cc1ccc(Nc2cc(N3CCCCC3)nc(N3CCO[C@@H](c4ccccc4)[C@H]3C)n2)cc1` [Example 48], the pKi was 6.92.

Turning to `Cc1ccc(Nc2cc(N(C)C)nc(N3CCN(c4ncccc4C(F)(F)F)CC3)n2)cc1` [Example 88], the pKi was 7.41.

Regarding `CN(CCc1c[nH]c2ccccc12)c1nc(Nc2ccc3ccccc3c2)cc(N2CCCCC2)n1` [Example 13], the pKi is 7.09.

Regarding `COCC1CCCCN1c1cc(Nc2ccc(C)cc2)nc(N2CCN(c3ncccc3C(F)(F)F)CC2)n1` (stereo not drawn) [Example 90], the pKi was 6.98.

As for `Cc1ccc(Nc2cc(N(C)C)nc(NCCc3c[nH]c4ccccc34)n2)cc1` [Example 76], the pKi was 6.41.

On to `Cc1cc(Nc2cc(N(C)C)nc(Nc3ccccc3)n2)ccc1Cl` [Example 61], for which the pKi is 6.12.

For `COCCN(c1nc(Nc2ccc(C)cc2)cc(N2CCCCC2)n1)C1CCCCC1` [Example 2], the pKi was 7.59.

As to `CC1CCC(Nc2cc(N(C)C)nc(Nc3ccccc3)n2)CC1` (stereo not drawn) [Example 67], the pKi was 6.12.

In the case of `Cc1ccc(Nc2cc(N3CCCCC3)nc(Nc3ccc(Cl)cc3)n2)cc1` [Example 5], the pKi was 6.46.

Consider `Cc1ccc(Nc2cc(N3CCCCC3)nc(N3CCN(c4cccc(C(F)(F)F)c4)CC3)n2)cc1` [Example 29], for which the pKi is 7.34.

Turning to `Cc1ccc(Nc2cc(N(C)C)nc(Nc3ccccc3)n2)cc1Cl` [Example 62], the pKi was 6.13.

With `Cc1ccc(Nc2cc(N3CCCCC3)nc(N3CCc4ccccc4C3)n2)cc1` [Example 41], the pKi is 6.82.

On to `Cc1ccc(Nc2cc(N3CCCCC3)nc(NC(C)Cc3c[nH]c4ccccc34)n2)cc1` (stereo not drawn) [Example 20], for which the pKi is 6.79.

The target in another assay is T3, human GAL2 receptor (Homo sapiens, UniProt O43603).
T3 construct: expressed in transfected cells
T3 sequence (O43603 1-387): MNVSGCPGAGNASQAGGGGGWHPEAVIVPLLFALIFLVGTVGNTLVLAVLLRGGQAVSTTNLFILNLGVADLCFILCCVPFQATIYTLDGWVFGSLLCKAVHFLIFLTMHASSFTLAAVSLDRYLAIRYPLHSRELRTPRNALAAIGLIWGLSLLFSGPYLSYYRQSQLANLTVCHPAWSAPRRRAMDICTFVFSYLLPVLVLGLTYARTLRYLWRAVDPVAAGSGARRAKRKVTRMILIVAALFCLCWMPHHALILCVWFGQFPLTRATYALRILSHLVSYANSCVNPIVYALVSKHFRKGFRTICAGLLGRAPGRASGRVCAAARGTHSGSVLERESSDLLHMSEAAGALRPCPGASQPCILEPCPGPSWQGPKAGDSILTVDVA
The assay is described as follows: Radioligand binding at cloned human GAL2 receptor. The following applies: pyrimidines, read-out: Ki GalR2. The protocol: The binding properties of the pyrimidines of the present invention were evaluated at the cloned human galanin receptors, GAL1, GAL2, and GAL3, using protocols described herein.
The binding properties of the indolones of the present invention were evaluated at the cloned human galanin receptors, GAL1, GAL2, and GAL3, using protocols described herein.
as §1, §2, §3, §4, §5
For the molecule `Cc1ccc(Nc2cc(N(C)C)nc(N3CCOC(c4ccccc4)C3)n2)cc1` (stereo not drawn) [Example 83], the pKi was less than 5.30.

`Cc1ccc(Nc2cc(N3CCCCC3)nc(N3CCN(c4ccccc4)CC3)n2)cc1` [Example 25]: the pKi was 5.82.

For `Cc1ccc(Nc2cc(N3CCCCC3)nc(N3CCO[C@@H](c4ccccc4)[C@H]3C)n2)cc1` [Example 48], the pKi was 5.37.

On to `Cc1ccc(Nc2cc(N(C)C)nc(N3CCN(c4ncccc4C(F)(F)F)CC3)n2)cc1` [Example 88], for which the pKi is 6.45.

Take `CN(CCc1c[nH]c2ccccc12)c1nc(Nc2ccc3ccccc3c2)cc(N2CCCCC2)n1` [Example 13]: the pKi is 5.85.

On to `COCC1CCCCN1c1cc(Nc2ccc(C)cc2)nc(N2CCN(c3ncccc3C(F)(F)F)CC2)n1` (stereo not drawn) [Example 90], for which the pKi was 5.61.

`Cc1ccc(Nc2cc(N(C)C)nc(NCCc3c[nH]c4ccccc34)n2)cc1` [Example 76]: the pKi was 5.78.

`Cc1cc(Nc2cc(N(C)C)nc(Nc3ccccc3)n2)ccc1Cl` [Example 61]: the pKi is less than 5.30.

For `COCCN(c1nc(Nc2ccc(C)cc2)cc(N2CCCCC2)n1)C1CCCCC1` [Example 2], the pKi is 6.25.

Take `CC1CCC(Nc2cc(N(C)C)nc(Nc3ccccc3)n2)CC1` (stereo not drawn) [Example 67]: the pKi was less than 5.30.

As to `Cc1ccc(Nc2cc(N3CCCCC3)nc(Nc3ccc(Cl)cc3)n2)cc1` [Example 5], the negative-log Ki (pKi) is less than 5.30.

For `Cc1ccc(Nc2cc(N3CCCCC3)nc(N3CCN(c4cccc(C(F)(F)F)c4)CC3)n2)cc1` [Example 29], the pKi was 6.44.

`Cc1ccc(Nc2cc(N(C)C)nc(Nc3ccccc3)n2)cc1Cl` [Example 62]: the pKi is less than 5.30.

`Cc1ccc(Nc2cc(N3CCCCC3)nc(N3CCc4ccccc4C3)n2)cc1` [Example 41]: the pKi is 6.08.

As for `Cc1ccc(Nc2cc(N3CCCCC3)nc(NC(C)Cc3c[nH]c4ccccc34)n2)cc1` (stereo not drawn) [Example 20], the negative logarithm of the Ki (pKi) was less than 5.30.
